Results: paper PMC4861903, “Synthesis of a highly water-soluble acacetin prodrug for treating experimental atrial fibrillation in beagle dogs” (Scientific Reports, 2016)
Converted amounts (≈) assume the structure as drawn. Read-outs that look alike come from different tables or passages of the source.

Columns and labels:
[1] = Aqueous solubility by HPLC in H2O, 5% glucose and 0.9% NaCl; type: physicochemical
[2] = biological target: T1, hKv1.5 current (IKur, KCN5A) (Homo sapiens, UniProt P22460); assay: Whole-cell patch clamp of hKv1.5 current in HEK 293 cells; type: cell-based; conditions: 10 μM, at +50 mV, current at end of the voltage step, n = 5
T1 construct: expressed in transfected cells
Procedure: (§1) Whole-cell currents of hKv1.5 and hKv4.3 were recorded in established HEK 293 cell lines stably expressing hKv1.5 (KCN5A) and hKv4.3 (KCND3) and IKACh was determined in isolated rat atrial myocytes as described previously[12][31][32] and in Supplemental Materials. […]
(§2) Effects of acacetin prodrug on cardiac potassium currents
(§3) Whole-cell currents of hKv1.5 and hKv4.3 were recorded in established HEK 293 cell lines stably expressing hKv1.5 (KCN5A) and hKv4.3 (KCND3).1, 2 The cells were cultured in Dulbecco’s modified eagle’s medium (DMEM, Invitrogen, Hong Kong) supplemented with 10% fetal bovine serum and 400 µg/mL G418. Cells on a coverslip were transferred to an open cell chamber (0.5 ml) mounted on the stage of an inverted microscope and superfused with Tyrode’s solution at 2 mL/min. The whole cell patch-clamp technique was used as described previously.1, 2 The whole-cell membrane currents were measured using an EPC-10 amplifier and Pulse software (Heka Elektronik, Lambrecht, Germany). Borosilicate glass electrodes (1.2-mm OD) were pulled with a Brown/Flaming puller (model P-97, Sutter Instrument, Nato, CA) and had resistances of 1.5~2.5 MΩ when filled with the pipette solution. A 3-M KCl agar bridge was used as the reference electrode. The tip potential was zeroed before the patch pipette contacted the cell. […]

[3] = biological target: T2, hKv4.3 current (Ito, KCND3) (Homo sapiens, UniProt Q9UK17); assay: Whole-cell patch clamp of hKv4.3 current in HEK 293 cells; type: cell-based; conditions: 10 μM, at +50 mV, current peak, n = 5
T2 construct: expressed in transfected cells
T2 sequence (Q9UK17 1-655): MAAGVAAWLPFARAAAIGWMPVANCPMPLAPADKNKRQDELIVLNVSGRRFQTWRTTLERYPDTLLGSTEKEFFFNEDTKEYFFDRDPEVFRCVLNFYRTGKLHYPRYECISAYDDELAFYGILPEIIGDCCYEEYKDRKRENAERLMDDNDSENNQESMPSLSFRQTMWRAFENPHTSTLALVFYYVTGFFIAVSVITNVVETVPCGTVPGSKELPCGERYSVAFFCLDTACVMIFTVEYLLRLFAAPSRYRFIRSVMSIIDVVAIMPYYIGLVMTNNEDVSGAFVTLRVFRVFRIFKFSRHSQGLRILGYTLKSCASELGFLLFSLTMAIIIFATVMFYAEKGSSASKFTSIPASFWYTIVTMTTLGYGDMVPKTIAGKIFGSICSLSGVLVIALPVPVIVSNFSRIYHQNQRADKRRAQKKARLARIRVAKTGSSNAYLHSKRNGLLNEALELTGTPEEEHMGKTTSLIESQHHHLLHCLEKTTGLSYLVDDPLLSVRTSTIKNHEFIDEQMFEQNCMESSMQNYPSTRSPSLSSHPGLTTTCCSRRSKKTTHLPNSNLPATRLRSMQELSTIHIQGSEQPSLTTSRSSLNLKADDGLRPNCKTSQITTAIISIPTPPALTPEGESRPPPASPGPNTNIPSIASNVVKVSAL
Procedure: as §1, §2, §3

[4] = biological target: T3, IKACh (acetylcholine-activated K+ current) (Rattus norvegicus, UniProt P48548+P63251); assay: Whole-cell IKACh elicited by 5 μM carbachol in rat atrial myocytes; type: cell-based; conditions: 10 μM, at −100 mV, carbachol sensitive current, n = 5
T3 construct: endogenous in cells; host or cells: atrial myocytes dissociated from male Sprague-Dawley rats
T3 sequence (P63251 1-501): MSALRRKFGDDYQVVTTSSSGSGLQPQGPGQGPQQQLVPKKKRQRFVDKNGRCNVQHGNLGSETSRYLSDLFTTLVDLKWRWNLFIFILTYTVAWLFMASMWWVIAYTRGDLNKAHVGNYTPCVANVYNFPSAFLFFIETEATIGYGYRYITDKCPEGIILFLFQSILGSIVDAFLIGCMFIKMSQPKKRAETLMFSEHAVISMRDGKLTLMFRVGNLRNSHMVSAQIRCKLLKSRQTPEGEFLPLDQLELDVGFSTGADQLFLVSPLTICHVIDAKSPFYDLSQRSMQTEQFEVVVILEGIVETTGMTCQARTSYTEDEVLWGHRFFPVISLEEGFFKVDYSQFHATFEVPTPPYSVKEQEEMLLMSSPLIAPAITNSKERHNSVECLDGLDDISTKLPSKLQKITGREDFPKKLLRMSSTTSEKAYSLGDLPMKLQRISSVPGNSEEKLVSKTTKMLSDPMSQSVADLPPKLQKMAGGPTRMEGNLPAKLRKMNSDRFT
T3 sequence (P48548 1-419): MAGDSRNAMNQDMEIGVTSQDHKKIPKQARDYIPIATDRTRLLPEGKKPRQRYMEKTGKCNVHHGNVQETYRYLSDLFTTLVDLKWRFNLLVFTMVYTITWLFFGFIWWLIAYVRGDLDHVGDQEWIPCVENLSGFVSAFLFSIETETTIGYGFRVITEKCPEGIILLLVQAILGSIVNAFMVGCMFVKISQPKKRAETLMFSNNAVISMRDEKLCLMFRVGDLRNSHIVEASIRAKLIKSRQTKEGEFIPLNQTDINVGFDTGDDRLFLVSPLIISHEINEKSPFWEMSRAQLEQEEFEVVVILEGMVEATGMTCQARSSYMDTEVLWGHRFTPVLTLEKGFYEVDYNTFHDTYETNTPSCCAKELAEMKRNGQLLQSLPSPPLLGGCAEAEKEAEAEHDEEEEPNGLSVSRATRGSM
Procedure: as §1
Effects of acacetin prodrug on cardiac potassium currents […]
Cells on a coverslip were transferred to an open cell chamber (0.5 ml) mounted on the stage of an inverted microscope and superfused with Tyrode’s solution at 2 mL/min. The whole cell patch-clamp technique was used as described previously.1, 2 The whole-cell membrane currents were measured using an EPC-10 amplifier and Pulse software (Heka Elektronik, Lambrecht, Germany). Borosilicate glass electrodes (1.2-mm OD) were pulled with a Brown/Flaming puller (model P-97, Sutter Instrument, Nato, CA) and had resistances of 1.5~2.5 MΩ when filled with the pipette solution. A 3-M KCl agar bridge was used as the reference electrode. The tip potential was zeroed before the patch pipette contacted the cell. After a giga-Ohm seal was obtained, the cell membrane was ruptured by applying gentle pressure to establish a whole-cell configuration. […] The liquid junction potential (14.7 mV) calculated with the software Clampex was not corrected in the experiment and data […]
Whole-cell current of IKACh was determined in isolated rat atrial myocytes. […]

[5] = biological target: T4, hERG channels (Homo sapiens, UniProt Q12809); conditions: 30 μM; cited from earlier work
T4 construct: expressed in transfected cells; host or cells: HEK 293
T4 sequence (Q12809 whole entry): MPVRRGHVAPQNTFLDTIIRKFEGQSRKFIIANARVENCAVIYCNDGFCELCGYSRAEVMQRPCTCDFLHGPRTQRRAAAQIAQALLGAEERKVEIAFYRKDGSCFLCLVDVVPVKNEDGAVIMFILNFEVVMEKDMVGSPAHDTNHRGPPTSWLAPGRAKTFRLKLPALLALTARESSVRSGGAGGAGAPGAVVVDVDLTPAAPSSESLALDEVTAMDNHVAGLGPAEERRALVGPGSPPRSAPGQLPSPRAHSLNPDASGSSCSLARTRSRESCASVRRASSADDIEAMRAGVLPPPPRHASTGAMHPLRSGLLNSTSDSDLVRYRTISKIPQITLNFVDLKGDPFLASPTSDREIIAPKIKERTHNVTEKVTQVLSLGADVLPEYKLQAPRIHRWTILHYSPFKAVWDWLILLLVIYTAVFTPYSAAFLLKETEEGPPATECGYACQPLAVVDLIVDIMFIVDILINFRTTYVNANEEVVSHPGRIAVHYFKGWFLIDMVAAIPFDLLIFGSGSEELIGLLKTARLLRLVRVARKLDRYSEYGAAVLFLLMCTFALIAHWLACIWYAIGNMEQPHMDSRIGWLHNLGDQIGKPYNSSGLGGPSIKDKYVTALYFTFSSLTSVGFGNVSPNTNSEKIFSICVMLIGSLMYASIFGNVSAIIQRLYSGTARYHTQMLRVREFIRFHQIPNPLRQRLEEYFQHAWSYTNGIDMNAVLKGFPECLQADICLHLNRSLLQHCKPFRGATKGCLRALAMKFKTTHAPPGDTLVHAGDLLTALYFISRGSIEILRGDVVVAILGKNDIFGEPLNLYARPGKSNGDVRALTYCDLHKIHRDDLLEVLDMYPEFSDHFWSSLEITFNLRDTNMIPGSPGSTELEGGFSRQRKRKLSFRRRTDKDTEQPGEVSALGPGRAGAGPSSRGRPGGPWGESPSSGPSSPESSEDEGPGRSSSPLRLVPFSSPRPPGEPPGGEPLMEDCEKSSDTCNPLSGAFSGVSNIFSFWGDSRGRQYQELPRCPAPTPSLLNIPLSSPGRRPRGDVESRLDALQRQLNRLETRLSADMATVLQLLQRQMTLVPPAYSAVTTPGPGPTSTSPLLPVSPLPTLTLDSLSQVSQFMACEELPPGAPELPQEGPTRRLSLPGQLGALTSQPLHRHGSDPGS

T1 sequence (P22460 whole entry): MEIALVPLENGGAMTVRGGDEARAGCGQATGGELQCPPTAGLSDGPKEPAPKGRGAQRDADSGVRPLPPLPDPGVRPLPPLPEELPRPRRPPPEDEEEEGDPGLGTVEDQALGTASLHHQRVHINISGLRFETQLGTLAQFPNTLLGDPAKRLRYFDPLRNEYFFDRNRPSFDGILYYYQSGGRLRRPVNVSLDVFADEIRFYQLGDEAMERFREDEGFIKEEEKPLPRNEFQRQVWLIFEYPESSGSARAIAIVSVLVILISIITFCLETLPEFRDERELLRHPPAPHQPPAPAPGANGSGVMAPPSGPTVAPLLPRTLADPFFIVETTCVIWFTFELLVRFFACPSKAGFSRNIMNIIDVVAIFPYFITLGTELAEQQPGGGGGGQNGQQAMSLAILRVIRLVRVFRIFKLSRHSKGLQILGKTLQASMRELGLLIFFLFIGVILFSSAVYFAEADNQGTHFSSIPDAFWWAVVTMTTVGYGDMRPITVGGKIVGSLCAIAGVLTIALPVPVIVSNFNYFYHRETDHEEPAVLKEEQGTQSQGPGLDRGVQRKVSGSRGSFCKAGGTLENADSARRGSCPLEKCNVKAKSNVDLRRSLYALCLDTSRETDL

Row | Structure (SMILES) | solubility [1] [µg/mL] | solubility ([1]; 24 °C, saline or isotonic) [µg/mL] | solubility ([1]; 24 °C, water) [µg/mL] | decrease of hKv1.5 current [2] [%] | decrease of hKv4.3 current [3] [%] | decrease of IK.ACh [4] [%] | inhibition of hERG current [5] | solubility ([1]; 24 °C, saline or isotonic, in 0.9% NaCl, room temperature (23–25 °C), n = 3, read-out: maximum solubility) [µg/mL] | solubility ([1]; 24 °C, saline or isotonic, in 5% glucose, room temperature (23–25 °C), n = 3, read-out: maximum solubility) [µg/mL] | solubility ([1]; 24 °C, water, in H2O, room temperature (23–25 °C), n = 3, read-out: maximum solubility) [µg/mL] | increase of aqueous solubility vs acacetin ([1]; in 0.9% NaCl) [folds] | increase of aqueous solubility vs acacetin ([1]; in 5% glucose) [folds] | increase of aqueous solubility vs acacetin ([1]; in H2O) [folds]
1 | COc1ccc(-c2cc(=O)c3c(O)cc(O)cc3o2)cc1 [acacetin] | 0.195 ± 0.0135 (≈ 0.686 µM) | 0.312 ± 0.0121 (≈ 1.1 µM) | 0.0644 ± 0.0109 (≈ 0.227 µM) | 79.7 ± 4.1 | 69.3 ± 5.1 | 66.5 ± 3.1 | ~ 50% |  |  |  |  |  | 
2 | COc1ccc(-c2cc(=O)c3c(O)cc(OP(=O)(O)O)cc3o2)cc1 [phosphate ester of acacetin] |  |  |  |  |  |  |  | 4.3 ± 0.1 | 2.7 ± 0.1 | 2.5 ± 0.1 | 21 | 7.6 | 37.8
